The results in this text go back to patent US20230099204A1, “PHARMACEUTICAL COMPOSITION FOR PREVENTION OR TREATMENT OF CANCER IN WHICH KRAS MUTATION AND ACTIVATED RON ARE PRESENT” (WELLMARKER BIO CO., LTD., priority 2020, published 2023).

Assay [1] relates to colorectal cancer patient-derived cell lines. In words: Cell death induction (cleaved caspase 3 staining) in colorectal cancer patient-derived cell lines. Conditions: 1 μM, FIG. 4. The assay is classed as cell-based, human.
Assay [2] relates to HCT15 (KRAS G13D/mRON Δ160). In words: Cell line HCT15-transplanted mouse model. The assay is classed as in vivo, BALB/c nude mice. The method, then: 5-Week-old female BALB/c nude mice were purchased and acclimatized for 1 week. Then, human colorectal cancer patient-derived cell line HCT15 (KRAS G13D/mRON Δ160) at 5×10^6 cells/mouse was injected subcutaneously (100 μL) into the right dorsal side of the mice. The compound of Example 1 was orally administered when the tumor reached a size of about 100 mm^3 The drug was administered once a day for 4 weeks, and tumor size and mouse body weight were measured twice a week.
After completion of the drug administration, the tumor tissues were analyzed.

For a further assay, the system named is HCT8. The assay is described as follows: MTS assay, cytotoxicity on colorectal cancer cell line HCT8. The assay is classed as cell-based. Conditions: Homo sapiens, HCT-8, RON wt, KRAS G13D, 72 hours. As to the method: (§1) MTS assay was performed to compare cytotoxicity of the compounds of Example 1, Example 2, Example 3, Example 4, Example 5, Example 6, and positive control 1 on a colorectal cancer cell line, and a cell death rate of the colorectal cancer cell line was analyzed to compare anticancer activity of the compounds.
(§2) The MTS assay was performed by seeding each colorectal cell line in a 96-well plate at 1,000 cells per well, and after 24 hours, performing treatment with the compounds of Examples 1 to 6 and positive control 1 at various concentrations (0.000001 μM to 10 μM) in 100 μL of 10% FBS-RPMI medium (WELGENE Inc.) per well. The cells were incubated for 72 hours. Then, 20 μL of MTS solution (Promega) was added thereto, and the cells were incubated for 2 hours. Then, the absorbance was measured at 490 nm. The IC50 values for the compounds of Examples 1 to 6 and positive control 1 were calculated using GraphPad Prism™ 5 to investigate cytotoxicity.

The subject of another assay is T84. In words: Cell death induction, trypan blue cell counting, T84. The assay is classed as cell-based. The following applies: T84 with a RON mutation; 1 μM; 48 hours; FIG. 1. As to the method: (§3) Based on the results above, to identify the cell death-inducing ability of the compounds of Example 1 and positive control 1, which are representative materials, preparation was performed by seeding respective colorectal cancer cell lines SNU-[…], HCT8, T84, and SW620 onto 60-mm plates at 3×10^5 cells, and then incubation was performed for 24 hours. Thereafter, treatment with each of Example 1 and positive control 1 was performed at 1μM and incubation was performed for 48 hours. After 48 hours, the cells and cell suspensions were collected by treatment with trypsin, resuspended in 1× PBS and stained using a trypan blue solution (Sigma, cat# T8154). The stained cells were counted using a hemocytometer. Cell counting was repeated, and the mean and the standard deviation were calculated.

The test system of assay [3] is HCT8 (KRAS G13D/pTyr-wtRON(+)). The assay is described as follows: Cell line HCT8-transplanted mouse model. The class given is in vivo, BALB/c nude mice. The method, then: 5-Week-old female BALB/c nude mice were purchased and acclimatized for 1 week. Then, human colorectal cancer patient-derived cell line SW620 (KRAS
G12V/mRON Δ155) at 5×10^6 cells/mouse was injected subcutaneously (100 μL) into the right dorsal side of the mice. The compound of Example 1 was orally administered when the tumor reached a size of about 100 mm^3. The drug was administered once a day for 4 weeks, and tumor size and mouse body weight were measured twice a week. After completion of the drug administration, the experimental animals were euthanized, and then the tumors were extracted and weighed for comparative analysis.
A portion of the extracted tumor tissue was fixed in 10% formalin and processed into a paraffin block. Then, the block was made into sections. Staining of the slide was performed through immunochemical staining. Another portion of the extracted tumor tissue was subjected to lysis, and then Western blotting was used to identify changes in expression of respective proteins.
The experiment was conducted in the same method as the procedure of Experimental Example 3, except that human colorectal cancer patient-derived cell line HCT8 (KRAS G13D/pTyr-wtRON(+)) was used in place of the human colorectal cancer patient-derived cell line SW620 (KRAS G12V/mRON Δ155), and the respective compounds of Example 1, positive control 1, and positive control 2 were administered.

The subject of a further assay is SNUC2A. In words: MTS assay, cytotoxicity on colorectal cancer cell line SNUC2A. The class given is cell-based. Conditions: RON mutation negative, KRAS G12D, 72 hours. The method, then:
as §1, §2

A further assay concerns SW480. In words: MTS assay, cytotoxicity on colorectal cancer cell line SW480. The assay is classed as cell-based. Conditions: Homo sapiens, RON Δ155, KRAS G12V, 72 hours. The method, then: as §1, §2
In the next assay the test system is SW620. The assay is described as follows: Cell death induction, trypan blue cell counting, SW620. The class given is cell-based, human. The following applies: 1 μM, 48 hours. As to the method:
as §3, with “48 hours. In addition, preparation was performed by seeding the cell line SW620 onto a 60-mm plate at 3×10^5 cells, and then incubation was performed for 24 hours. Thereafter, treatment with each of Example 1, positive control 1, positive control 2, and positive control 3 was performed at 1 μM. After 48” for “48 hours. After 48”

The test system of a further assay is HCT15. The assay is described as follows: MTS assay, cytotoxicity on colorectal cancer cell line HCT15. The class given is cell-based. The following applies: Homo sapiens, HCT-15, RON Δ160, KRAS G13D, 72 hours. As to the method: as §1, §2
In general terms: Tetrazolium assays rely on reduction of a dye to a coloured formazan, in cell work by metabolically active cells.

Structures are written as SMILES.

One may read the IC50 as the point on the concentration scale where inhibition reaches its midpoint. Low values mean inhibition by little substance, high ones a need for much substance. For the compound `CCOc1ccn(-c2ccc(F)cc2)c(=O)c1C(=O)Nc1ccc(Oc2ccnc3cc(-c4ccc(CN5CCOCC5)cn4)sc23)c(F)c1.Cl` [Example 1, 4-ethoxy-N-[3-fluoro-4-({2-[5-(morpholinomethyl)pyridine-2-yl]thieno[3,2-b]pyridine-7-yl}oxy)phenyl]-1-(4-fluorophenyl)-2-oxo-1,2-dihydropyridine-3-carboxamide hydrochloride], the “cell death induction efficacy” value is “exhibited cell death induction efficacy” in assay [1] (patient-derived cell line expressing a RON mutation or pTyr-wtRON); “did not exhibit cell death induction efficacy” in [1] (patient-derived cell line with inactive RON); “cell death induction efficacy was exhibited regardless of mutation type” with T84; “cell death induction efficacy was exhibited regardless of mutation type” in the assay with SW620 (SW620 with a RON mutation, FIG. 1). The “expression of cleaved caspase 3 in tumor tissue” value in [2] (FIG. 13) is “induced expression”. Also, the “expression of cyclin D1 (PD marker) in tumor tissue” value in assay [2] (FIG. 13) is reported as “decreased expression”. The “expression of pTyr-mRON in tumor tissue” value in assay [2] (FIG. 13) is listed as “decreased expression”. The “tumor growth inhibitory efficacy” value was “high tumor growth inhibitory efficacy” in assay [2] (oral, once a day for 4 weeks, FIG. 12); “high tumor growth inhibitory efficacy” in assay [3] (compared with positive control 1 and positive control 2, FIG. 8). In addition, the IC50 worked out at 420 nM with HCT8, 5780 nM with SNUC2A, 340 nM in the assay with SW480 and 230 nM in the assay on HCT15. For the same compound, the “Tumor growth inhibition (TGI, %)” value in assay [3] (10 mg/kg, oral, once a day for 4 weeks) was determined as 58.5 ± 9.1%. The cell death rate result in the assay on SW620 (SW620 (KRAS G12V/mRON Δ155), FIG. 2) is on record as “high cell death rate”.
